Publication PMC8653067 (ChemMedChem, 2021)
Entries after “also recorded” stand apart in the source; their conditions may differ. Like-named read-outs stand apart in the source and are kept apart here.

Assays:
PLpro from SARS-CoV-2 [1] = target: T1, PLpro from SARS-CoV-2 (Severe acute respiratory syndrome coronavirus 2, UniProt P0DTD1); format: biochemical; conditions: for IC50: read-out: IC50 (µM) determined using Z-LRGG-AMC as a PLpro substrate
PLpro from SARS-CoV-2 [2] = target: T1, PLpro from SARS-CoV-2; format: biochemical
PLpro from SARS-CoV-2 [3] = target: T1, PLpro from SARS-CoV-2; format: biochemical; conditions: for IC50: read-out: IC50 (µM) determined using Ub-AMC as a PLpro substrate, 20 nM PLpro, 5 μM Ub-AMC, triplicates; for Extent of PLpro inhibition in IC50 assay (in words): 5 μM Ub-AMC substrate
[4] = target: ubiquitin C-terminal hydrolase L3; conditions: read-out: reported IC50 for ubiquitin C-terminal hydrolase L3; cited from earlier work
[5] = 20 nM PLpro, 50 μM Z-LRGG-AMC, triplicates
[6] = 200 μM inhibitor, 20 nM PLpro, 50 μM Z-LRGG-AMC
[7] = Z-LRGG-AMC substrate, highest tested concentration 200 μM

Compound | IC50 (PLpro from SARS-CoV-2 [1]; [5]) | PLpro inhibition in initial screening (PLpro from SARS-CoV-2 [2]; [6]) | further results
O=C1CC(=O)c2c(Cl)c(Cl)c(Cl)c(Cl)c21 [TCID] | – | – | Extent of PLpro inhibition in IC50 characterization (in words) (PLpro from SARS-CoV-2 [1]): can fully inhibit PLpro at 200 µM; PLpro inhibition in initial screening (PLpro from SARS-CoV-2 [2]): inhibited PLpro activity almost completely; IC50 (PLpro from SARS-CoV-2 [3]): 10.5 ± 2.7 µM; IC50 [4]: 0.6 µM
CC(=O)c1cc([N+](=O)[O-])c(Sc2cccc(Cl)c2Cl)s1 [P005091] | > 100 µM | inhibited PLpro partially but at significant levels | –
Cc1ccc(/C=C2\CNC/C(=C\c3ccc(C)cc3)C2=O)cc1 [NSC63283] | > 100 µM | – | –
CC(=O)O/N=C1\C(=O)N(Cc2cc(Cl)ccc2Cl)c2ccc(Cl)cc21 [LDN-57444] | > 100 µM | inhibited PLpro partially but at significant levels | –
C=CCO/N=C1\c2ccccc2-c2nc(C#N)c(C#N)nc21 [DUB-IN-3] | – | – | Extent of PLpro inhibition in IC50 characterization (in words) (PLpro from SARS-CoV-2 [1]): only partial inhibition of PLpro; Extent of PLpro inhibition in IC50 assay (in words) (PLpro from SARS-CoV-2 [3]): simple inhibition curve that did not reach its plateau at the highest inhibitor concentration; IC50 (PLpro from SARS-CoV-2 [3]): > 10 µM
C=CC(=O)N1CC/C(=C\c2ccc(F)c([N+](=O)[O-])c2)C(=O)/C(=C/c2ccc(F)c([N+](=O)[O-])c2)C1 [VLX1570] | > 100 µM | – | –
N#Cc1nc2c(nc1C#N)-c1ccccc1/C2=N\OCc1ccccc1 [DUB-IN-1] | > 100 µM | – | –
CCO/N=C1\c2ccccc2-c2nc(C#N)c(C#N)nc21 [DUB-IN-2] | – | – | IC50 (PLpro from SARS-CoV-2 [1]): > 100 µM
HBX19818 | > 100 µM | inhibited PLpro partially but at significant levels | –
O=C1c2ccccc2C(=O)c2oc(-c3cccnc3)nc21 [SJB3–019A] | 8.15 ± 3.59 µM | inhibited PLpro partially but at significant levels | Extent of PLpro inhibition in IC50 characterization (in words) (PLpro from SARS-CoV-2 [1]; [7]): only partial inhibition of PLpro
CC(=O)c1cc([N+](=O)[O-])c(Sc2ccc(F)cc2F)s1 [P22077] | > 100 µM | inhibited PLpro partially but at significant levels | –
O=C1c2ccccc2C(=O)c2oc(-c3ccccc3)nc21 [SJB2–043] | – | inhibited PLpro partially but at significant levels | Extent of PLpro inhibition in IC50 characterization (in words) (PLpro from SARS-CoV-2 [1]; [7]): only partial inhibition of PLpro; Extent of PLpro inhibition in IC50 characterization (in words) (PLpro from SARS-CoV-2 [1]; Z-LRGG-AMC substrate, highest tested concentration 200 μM, listed as SBJ2–043): can only partially inhibit PLpro; Extent of PLpro inhibition in IC50 assay (in words) (PLpro from SARS-CoV-2 [3]): did not inhibit PLpro completely; IC50 (PLpro from SARS-CoV-2 [3]): 0.091 ± 0.024 µM
Cc1ccc(S(=O)(=O)Nc2cc(C(F)(F)F)ccc2C(=O)Nc2nc(-c3ccccc3)cs2)cc1 [ML364] | – | significant quenching effects leading to negative signals | Extent of PLpro inhibition in IC50 characterization (in words) (PLpro from SARS-CoV-2 [1]; [7]): did not show strong concentration-dependent inhibition of PLpro
N#CSc1cc(SC#N)c(N)nc1N [PR-619] | – | significant quenching effects leading to negative signals | Extent of PLpro inhibition in IC50 characterization (in words) (PLpro from SARS-CoV-2 [1]; [7]): strongly inhibited PLpro at concentrations above 1 μM; also recorded: can fully inhibit PLpro at 200 µM; IC50 (PLpro from SARS-CoV-2 [3]): 12.9 ± 2.4 µM
